# Results: US9487787B2, “Method for regulating protein function in cells using synthetic small molecules” (The Board of Trustees of the Leland Stanford Junior …, priority 2007, dated 2016)
# Peptide text beside a SMILES is read from it. * marks the point of attachment. Cbz = O=C(OCc1ccccc1)*
# Tests used:
# proteasome = assay: Immunoblot of F15S-YFP and L106P-YFP after Shield1 withdrawal with proteasome inhibitors; format: cell-based; conditions: 10 μM, 4 hrs, F15S-YFP and L106P-YFP in NIH3T3
# Method: Immunoblot analysis was performed using an anti-YFP antibody.
# The mechanism of degradation was examined for the F15S and L106P variants. Since the ubiquitin-proteasome system is a major mediator of intracellular protein degradation (Pickart, 2004), the cells expressing either the FKBP-derived, ligand-responsive destabilizing domain variants F15S or L106P were incubated with MG132 (FIG. 2F) or lactacystin (FIG. 9), which inhibit ubiquitin-proteasome-mediated protein degradation.
# FKBP F36V variant = FKBP F36V variant (Homo sapiens, UniProt P62942, F37V); conditions: Clackson et al. 1998; cited from earlier work
# FKBP F36V variant, sequence (P62942 2-108 F37V limits assumed): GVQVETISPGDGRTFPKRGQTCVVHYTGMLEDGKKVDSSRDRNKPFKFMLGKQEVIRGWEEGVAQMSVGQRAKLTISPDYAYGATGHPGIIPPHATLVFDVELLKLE
# YFP fusion protein = assay: Immunoblot of YFP fusion protein in transfected Plasmodium; format: cell-based, Plasmodium falciparum
# FKBP-YFP fusion proteins [1] = biological target: T1, FKBP-YFP fusion proteins (Homo sapiens, UniProt P62942, F37V); assay: Kinetics of FKBP-YFP fluorescence upon addition of Shield1; format: cell-based; conditions: NIH3T3 cells transduced with L106P-YFP
# T1 construct: expressed in transfected cells
# T1 sequence (P62942 with tags, fused parts or gaps F37V): as the sequence (P62942 2-108 F37V limits assumed) above, with L106P counted along it
# Method: (§1) The data for FIGS. 2A-2D are presented as the average mean fluorescence intensity (MFI)±SEM relative to that of the maximum fluorescence intensity observed for the individual mutant. Experiments were performed in triplicate. (FIG. 2A) Fluorescence of FKBP-YFP fusion proteins expressed in NIH3T3 cells as determined by flow cytometry in the absence of Shield1. (FIG. 2B) NIH3T3 cells stably expressing FKBP-YFP fusion proteins were treated with three-fold dilutions of Shield1 (1 μM to 0.1 nM) and the fluorescence was monitored by flow cytometry. (FIG. 2C) NIH3T3 cells stably expressing FKBP-YFP fusion proteins were either mock-treated (circles) or treated with 30 nM Shield1 (squares), 100 nM Shield1 (diamonds), 300 nM Shield1 (crosses), or 1 μM Shield1 (triangles). Fluorescence was monitored over time using flow cytometry. MFI was normalized to 100% of cells treated with 1 μM Shield1 at 24 hrs. (FIG. 2D) NIH3T3 cells stably expressing FKBP-YFP fusion proteins were treated with 1 μM Shield1 for 24 hours at which point the cells were washed with media to remove Shield1, and the decrease in fluorescence was monitored using flow cytometry.
# (§2) FIG. 8 is a graph showing the kinetics of FKBP-YFP fluorescence in cells upon addition of Shield1. NIH3T3 cells stably expressing the indicated FKBP-YFP fusions were treated with 1 μM Shield1, and increases in fluorescence were monitored over time using flow cytometry. Data are presented as the average mean fluorescence intensity (MFI)±SEM relative to that of the maximum fluorescence intensity observed for the individual variant. The experiment was performed in triplicate, and MFI was normalized to 100% at 24 hr.
# (§3) In a kinetic study of NIH3T3 cells stably expressing each of the five FKBP-derived, ligand-responsive destabilizing domain variants, YFP fluorescence increased at approximately the same rate upon addition of Shield1, with maximum fluorescence achieved at 24 hours and stably maintained for at least an additional 48 hours without further addition of Shield1 (FIG. 2C). […]
# FKBP-YFP fusion proteins [2] = assay: as above; format: cell-based, human; conditions: NIH3T3 cells stably expressing FKBP-YFP variants
# Method: as §1, §2, §3
# [3] = system: FKBP-derived stability-affecting domain fused to the N-terminus of YFP; assay: Time lapse fluorescence microscopy of parasitophorous vacuoles in infected HFF cells; format: cell-based, Toxoplasma gondii; conditions: T. gondii in HFF cells
# Text: The fluorescence of parasitophorous vacuoles in infected cells was monitored by time lapse microscopy following addition (FIG. 6B) or removal of ligand (FIG. 6C). Background fluorescence is indicated.
# Nucleotides expressing the fusion the fusion protein were introduced into T. gondii parasites, which were then used to infect HFF cells. The parasitophorous vacuoles in the infected cells were monitored by time lapse fluorescence microscopy following the addition of ligand (Shield1; FIG. 6B) or following the removal of ligand (FIG. 6C). The indicated control line corresponds to background fluorescence, while each of the other lines in the graphs correspond to individual infected cells.
# [4] = system: luciferase fused to FKBP-derived stability-affecting protein (F36V/L106P); assay: Bioluminescence imaging of mice challenged with HCT116 tumor cells expressing luciferase-FKBP fusion; format: in vivo, SCID mice
# luciferase fused to FKBP-derived stability-affecting protein (F36V/L106P), sequence (P62942 with tags, fused parts or gaps F37V limits assumed): as the sequence (P62942 2-108 F37V limits assumed) above, with L106P counted along it
# Text: FIGS. 7A and 7B are graphs showing the results of an experiments in which SCID mice were challenged with tumor cells genetically manipulated to express luciferase fused to a stability-affecting protein.
# HCT116 cancer cells were transfected with a nucleic acids encoding the reporter gene luciferase fused to an FKBP-derived stability-affecting protein (F36V/L106P) mutant. Stable transformants were then selected and used to challenge SCID mice.
# The results of an experiments in which SCID were challenged with tumor cells harboring nucleic acids encoding luciferase fused to an FKBP-derived, stability-affecting protein (F36V/L106P) are shown in FIGS. 7A and 7B. The mice were either untreated or treated with the indicated amounts of ligand (Shield1) and bioluminescent signals were imaged over time as described (Lin, A. H., et al. (2005) J. Immunol. 175:547-54; Luo, J., et al. (2006) Proc. Nat'l. Acad. Sci. USA 103:18326-31; n=4-10 mice per treatment group).
# [5] = system: falcipain-2 fused to the F36V/L106P FKBP mutant; assay: Conditional falcipain stabilization, swollen vacuole phenotype; format: cell-based, Plasmodium falciparum
# falcipain-2 fused to the F36V/L106P FKBP mutant, sequence (P62942 with tags, fused parts or gaps F37V limits assumed): as the sequence (P62942 2-108 F37V limits assumed) above, with L106P counted along it
# Text: In a related experiment, fusion proteins were made with falcipain-2, a cysteine protease. Knocking out the falcipain-2 gene causes vacuole swelling resulting from the decreased ability of the organisms to degrade hemoglobin. Fusion of falcipain-2 to the F36V/L106P FKBP mutant produced a conditional falcipain stabilization system.
# [6] = biological target: T2, FKBP V24A-YFP fusion protein (Homo sapiens, UniProt P62942, F37V/V25A); assay: Shield1 dose-response stabilization of FKBP-YFP fusion, flow cytometry; format: cell-based; conditions: NIH3T3 cells stably expressing V24A FKBP-YFP; extracellular Shield1 giving 50% of maximum YFP signal; read-out: EC50 of stabilization (rescue) by Shield1
# T2 construct: expressed in transfected cells; host or cells: NIH3T3 (retroviral transduction)
# T2 sequence (P62942 2-108 V25A/F37V): as the sequence (P62942 2-108 F37V limits assumed) above, with V24A counted along it
# Method: as §1
# (§4) Twenty-four hours prior to analysis, transduced NIH3T3 cells were plated at 1×10^5 cells per well of a 12-well plate and treated as described. Cells were removed from the plate using PBS+2 mM EDTA, washed once with PBS, and resuspended in 200 μl PBS. Cells were analyzed at the Stanford Shared FACS Facility using FlasherII with 10,000 events represented.
# (§5) Each variant FKBP-derived, ligand-responsive destabilizing domain was separately transduced into NIH3T3 cells, and YFP fluorescence levels were measured in the absence of Shield1 (FIG. 2A). […] The most destabilizing variation, L106P, produced YFP fluorescence at a level of only 1-2% relative to the positive control. All FKBP-derived, ligand-responsive destabilizing domain variants produced increased fluorescence signal when incubated in the presence of Shield1 ([…]). […]
# [7] = biological target: T3, FKBP L106P-YFP fusion protein (Homo sapiens, UniProt P62942, F37V); assay: as above; format: cell-based
# T3 construct: expressed in transfected cells
# T3 sequence (P62942 with tags, fused parts or gaps F37V): as the sequence (P62942 2-108 F37V limits assumed) above, with L106P counted along it
# Method: as §1, §4, §5
# [8] = system: L106P-RhoA, L106P-Cdc42, Arl7-L106P in NIH3T3 cells; assay: Ligand-dependent control of cell morphology by GTPase fusions, confocal microscopy; format: cell-based; conditions: Shield1-treated, mock-treated or Shield1 removed
# Method: NIH3T3 cells stably expressing constitutively active GTPases fused to destabilizing domains were treated with 1 μM Shield1 for 24 hr. At this time, cells were washed once with PBS, plated at 8×10^3 cells in 4-well LabTek Chambered coverglass (NUNC) coated with 1 mg/ml poly-D-lysine (Sigma), along with mock-treated transduced cells and transduced cells treated with 1 μM Shield1. Cells were cultured for 24 hr in 10% DBS, then cultured in serum-free media for 12 hr. Cells were then washed with PBS, fixed in 4% paraformaldehyde for 15 min, permeabilized in 0.2% Triton X-100 for 5 min, stained with 1 μg/ml Alexa Fluor 488-conjugated phalloidin (Invitrogen; A12379) in PBS for 20 min, and washed with PBS. Fixed cells were imaged using a Bio-Rad Radiance 2100 confocal microscope.
# Expression of constitutively active small GTPases causes well-characterized changes in cellular morphology (Heo and Meyer, 2003). To determine if FKBP-derived destabilizing domains, in combination with Shield1, could affect cell morphology by modulating GTPases levels, several small GTPases (i.e., RhoA, Cdc42, or Arl7) were fused to the destabilizing domains (FIGS. 4A and 4B). NIH3T3 cells were individually transduced with the L106P-RhoA, L106P-Cdc42, or Arl7-L106P (note arrangement of fusions), and then mock-treated or treated with Shield1, and visualized using confocal microscopy (not shown). […]
# [9] = system: FKBP variant fusions to proteins of interest in NIH3T3 cells; assay: Immunoblot of proteins of interest fused to FKBP destabilizing domains, mock or 1 μM Shield1; format: cell-based
# Method: (FIG. 4A) FKBP variants F15S and L106P were fused to the N-termini of several different proteins and transduced into NIH3T3 cells. Cell populations stably expressing the fusions were then either mock-treated or treated with 1 μM Shield1, and cell lysates were subjected to immunoblot analysis using antibodies specific for the protein of interest. Endogenous proteins served as loading controls (when detected) and Hsp90 served as a loading control otherwise. (FIG. 4B) FKBP variants D100G and L106P were fused to the C-termini of several different proteins of interest and treated as above.
# An additional example is CD8α, a transmembrane glycoprotein found on the surface of T cells, which was able to be detected on the surface of cells by flow cytometry (FIG. 5), in a Shield1-dependent manner. […] Here, NIH3T3 cells stably expressing the fusion proteins were divided into three pools (groups). The first group (−) was mock-treated, the second group (+) was treated with 1 μM Shield1 for 24 hrs, and the third group (+/−) was treated with 1 μM Shield1 for 24 hrs, and then washed with media and cultured for 24 hr in the absence of Shield1. Live cells were then probed with a FITC-conjugated anti-CD8α antibody and assayed by flow cytometry. Data are presented as the average mean fluorescence intensity±SEM from an experiment performed in triplicate.
molecule,measurement,setting,value
CC(C)C[C@@H](C=O)NC(=O)[C@H](CC(C)C)NC(=O)[C@H](CC(C)C)NC(=O)OCc1ccccc1 [MG132] (Cbz-Leu-Leu-Leu-aldehyde),effect on degradation of variant FKBP fusion proteins following withdrawal of Shield1,proteasome,inhibited degradation
"1-[2-(3,4,5-trimethoxy-phenyl)-butyryl]-piperazine-2-carboxylic acid 3-(3,4-dimethoxy-phenyl)-1-[3-(2-morpholin-4-yl-ethoxy)-phenyl]-propyl ester [Shield1]",binding to F36V variant compared to wild-type FKBP,FKBP F36V variant,"about 1,000 fold"
same,levels of YFP fusion protein in the presence of ligand,YFP fusion protein,greatly increased
same,time within which YFP expression is observed after Shield1 treatment,FKBP-YFP fusion proteins [1],≤ 15 min
same,additional time maximum fluorescence is stably maintained without further addition of Shield1,FKBP-YFP fusion proteins [2],≥ 48 h
same,time at which maximum fluorescence is achieved after addition of Shield1,FKBP-YFP fusion proteins [2],24 h
same,levels of YFP on addition / removal of ligand,[3],levels of YFP increase in the presence of ligand and decrease in the absence of ligand
same,effect of repeated administration of the ligand,[4]; 10 mg/kg Shield1 every 48 hours,continued luciferase stabilization
same,time of peak luminescence following a single injection of ligand,"[4]; SCID mice, HCT116 luciferase-FKBP F36V/L106P tumors",about 10 hours
same,dependence of luminescence on ligand dose,"[4]; SCID mice, single injection",dependent on ligand dose
same,"organisms with swollen vacuole phenotype, presence of ligand compared to absence",[5],More than 5 times
same,EC50,[6],~5 nM
same,L106P-YFP stabilization upon addition of Shield1,[7]; 1 μM Shield1,fully stabilized
same,EC50,[7]; NIH3T3 cells stably expressing L106P FKBP-YFP,~100 nM
same,percentage of cells displaying the predicted morphology (penetrance),[8],> 90%
same,Shield1-dependent stability of fusion proteins,[9],Shield1-dependent stability
CC(=O)N[C@@H](CSC(=O)[C@]1([C@@H](O)C(C)C)NC(=O)[C@H](C)[C@@H]1O)C(=O)O [lactacystin],effect on degradation of variant FKBP fusion proteins following withdrawal of Shield1,proteasome,inhibited degradation
